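The compound was tested at five concentrations on cells cultured in 96-well plates, with a 48-hour exposure period. TGI: concentration producing complete growth inhibition.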
Assays:
Assay in all cases: inhibition of tumour cell growth, NCI panel, 48 h
[1] = test system: SNB-19 CNS
[2] = test system: OVCAR-8 ovarian
[3] = test system: MOLT-4 leukemia
[4] = test system: OVCAR-3 ovarian
[5] = test system: UACC-257 melanoma
[6] = test system: MALME-3M melanoma
[7] = test system: SK-OV-3 ovarian
[8] = test system: NCI-H460 lung
[9] = test system: NCI-H226 lung
[10] = test system: SF-539 CNS
[11] = test system: HCT-15 colon
[12] = test system: SK-MEL-5 melanoma
[13] = test system: K-562 leukemia
[14] = test system: TK-10 renal
[15] = test system: UO-31 renal
[16] = test system: MDA-N
[17] = test system: HCC-2998 colon
[18] = test system: SN12C renal
[19] = test system: SK-MEL-2 melanoma
[20] = test system: HS 578T breast
[21] = test system: COLO 205 colon
[22] = test system: RPMI-8226 leukemia
[23] = test system: U251 CNS
[24] = test system: SK-MEL-28 melanoma
[25] = test system: HOP-62 NSCLC
[26] = test system: PC-3 prostate
[27] = test system: NCI/ADR-RES ovarian
[28] = test system: A549 NSCLC
[29] = test system: SW-620 colon
[30] = test system: HT29 colon
[31] = test system: LOX IMVI melanoma
[32] = test system: HL-60(TB) leukemia
[33] = test system: M14 melanoma
[34] = test system: RXF 393 renal
[35] = test system: IGROV1 ovarian
[36] = test system: SF-268 CNS
[37] = test system: SNB-75 CNS
[38] = test system: CCRF-CEM leukemia
[39] = test system: EKVX NSCLC
[40] = test system: HOP-92 NSCLC
[41] = test system: BT-549 breast
[42] = test system: SF-295 CNS
[43] = test system: 786-0 renal
[44] = test system: OVCAR-5 ovarian
[45] = test system: MDA-MB-435
[46] = test system: CAKI-1 renal
[47] = test system: NCI-H522 lung
[48] = test system: DU-145 prostate
[49] = test system: ACHN renal
[50] = test system: SR leukemia
[51] = test system: A498 renal
[52] = test system: UACC-62 melanoma
[53] = test system: T-47D breast
[54] = test system: MCF7 breast
[55] = test system: OVCAR-4 ovarian
[56] = test system: NCI-H23 lung
[57] = test system: KM12 colon
[58] = test system: HCT-116 colon
[59] = test system: MDA-MB-231 breast

## O=[N+]([O-])/C(C(Cl)=C(Cl)Cl)=C(/Sc1ccccc1)N1CCCCC1
[1]
  TGI: > 100 µM
[2]
  TGI: > 100 µM
[3]
  TGI: > 100 µM
[4]
  TGI: > 100 µM
[5]
  TGI: 99.1 µM
[6]
  TGI: > 100 µM
[7]
  TGI: > 100 µM
[8]
  TGI: > 100 µM
[9]
  TGI: > 100 µM
[10]
  TGI: > 100 µM
[11]
  TGI: > 100 µM
[12]
  TGI: > 88.1 µM
[13]
  TGI: > 100 µM
[14]
  TGI: > 100 µM
[15]
  TGI: > 100 µM
[16]
  TGI: > 100 µM
[17]
  TGI: > 100 µM
[18]
  TGI: > 100 µM
[19]
  TGI: > 100 µM
[20]
  TGI: > 100 µM
[21]
  TGI: > 100 µM
[22]
  TGI: > 100 µM
[23]
  TGI: > 100 µM
[24]
  TGI: > 100 µM
[25]
  TGI: > 100 µM
[26]
  TGI: > 100 µM
[27]
  TGI: > 100 µM
[28]
  TGI: > 100 µM
[29]
  TGI: > 100 µM
[30]
  TGI: > 100 µM
[31]
  TGI: > 100 µM
[32]
  TGI: > 26.8 µM
[33]
  TGI: > 100 µM
[34]
  TGI: > 100 µM
[35]
  TGI: > 100 µM
[36]
  TGI: > 100 µM
[37]
  TGI: > 100 µM
[38]
  TGI: > 100 µM
[39]
  TGI: > 100 µM
[40]
  TGI: > 100 µM
[41]
  TGI: > 100 µM
[42]
  TGI: > 100 µM
[43]
  TGI: > 100 µM
[44]
  TGI: > 100 µM
[45]
  TGI: > 100 µM
[46]
  TGI: > 100 µM
[47]
  TGI: > 100 µM
[48]
  TGI: > 100 µM
[49]
  TGI: > 100 µM
[50]
  TGI: > 26.4 µM
[51]
  TGI: > 100 µM
[52]
  TGI: > 100 µM
[53]
  TGI: > 100 µM
[54]
  TGI: > 100 µM
[55]
  TGI: > 100 µM
[56]
  TGI: > 100 µM
[57]
  TGI: > 100 µM
[58]
  TGI: > 100 µM
[59]
  TGI: > 100 µM

## O=C(NC(Nc1ccc(F)c(Cl)c1)(C(F)(F)F)C(F)(F)F)OCc1ccccc1
[1]
  TGI: 51 µM
[2]
  TGI: > 100 µM
[3]
  TGI: 89.1 µM
[4]
  TGI: 34.8 µM
[5]
  TGI: > 100 µM
[6]
  TGI: > 100 µM
[7]
  TGI: 74.1 µM
[8]
  TGI: > 100 µM
[9]
  TGI: > 100 µM
[10]
  TGI: 42.6 µM
[11]
  TGI: 94.5 µM
[12]
  TGI: > 100 µM
[13]
  TGI: > 100 µM
[14]
  TGI: > 100 µM
[15]
  TGI: 54.1 µM
[16]
  TGI: 56.2 µM
[17]
  TGI: 64.8 µM
[18]
  TGI: > 100 µM
[19]
  TGI: > 100 µM
[20]
  TGI: > 100 µM
[21]
  TGI: 35.1 µM
[22]
  TGI: 61.4 µM
[23]
  TGI: > 100 µM
[24]
  TGI: > 100 µM
[25]
  TGI: > 100 µM
[26]
  TGI: > 100 µM
[27]
  TGI: > 100 µM
[28]
  TGI: > 100 µM
[29]
  TGI: > 100 µM
[30]
  TGI: > 100 µM
[31]
  TGI: > 100 µM
[32]
  TGI: 40.3 µM
[33]
  TGI: > 100 µM
[34]
  TGI: > 100 µM
[35]
  TGI: > 100 µM
[36]
  TGI: > 100 µM
[37]
  TGI: > 100 µM
[38]
  TGI: > 100 µM
[39]
  TGI: 83.6 µM
[40]
  TGI: 95 µM
[41]
  TGI: 33.6 µM
[42]
  TGI: 91.7 µM
[43]
  TGI: 39.5 µM
[44]
  TGI: > 100 µM
[45]
  TGI: > 100 µM
[46]
  TGI: > 100 µM
[47]
  TGI: 42.1 µM
[48]
  TGI: > 100 µM
[49]
  TGI: > 100 µM
[50]
  TGI: 32.7 µM
[51]
  TGI: > 100 µM
[52]
  TGI: > 100 µM
[53]
  TGI: > 100 µM
[54]
  TGI: 38.1 µM
[56]
  TGI: > 100 µM
[57]
  TGI: > 100 µM
[58]
  TGI: > 100 µM
[59]
  TGI: 33.5 µM

## OC1CN2Cc3cc4c(cc3[C@]13C=C[C@@H](O)CC23)OCO4 (stereo partly drawn)
[1]
  TGI: > 100 µM
[2]
  TGI: > 100 µM
[3]
  TGI: > 100 µM
[4]
  TGI: > 100 µM
[5]
  TGI: 34.9 µM
[6]
  TGI: > 100 µM
[7]
  TGI: > 100 µM
[8]
  TGI: 45.6 µM
[9]
  TGI: > 100 µM
[10]
  TGI: > 100 µM
[11]
  TGI: > 100 µM
[12]
  TGI: > 100 µM
[13]
  TGI: > 100 µM
[14]
  TGI: 93.3 µM
[15]
  TGI: > 100 µM
[16]
  TGI: > 100 µM
[18]
  TGI: > 100 µM
[19]
  TGI: > 100 µM
[20]
  TGI: > 100 µM
[21]
  TGI: > 100 µM
[22]
  TGI: > 100 µM
[23]
  TGI: > 100 µM
[24]
  TGI: > 100 µM
[25]
  TGI: > 100 µM
[26]
  TGI: > 100 µM
[27]
  TGI: > 100 µM
[28]
  TGI: > 100 µM
[29]
  TGI: > 100 µM
[30]
  TGI: > 100 µM
[31]
  TGI: > 100 µM
[32]
  TGI: 75.3 µM
[33]
  TGI: > 100 µM
[34]
  TGI: 58.6 µM
[35]
  TGI: > 100 µM
[36]
  TGI: > 100 µM
[38]
  TGI: 48.5 µM
[39]
  TGI: 94.5 µM
[40]
  TGI: 86.8 µM
[41]
  TGI: > 100 µM
[42]
  TGI: > 100 µM
[43]
  TGI: > 100 µM
[44]
  TGI: > 100 µM
[45]
  TGI: > 100 µM
[46]
  TGI: > 100 µM
[47]
  TGI: > 100 µM
[48]
  TGI: 71.9 µM
[49]
  TGI: > 100 µM
[50]
  TGI: > 100 µM
[51]
  TGI: > 100 µM
[52]
  TGI: > 100 µM
[53]
  TGI: 31.2 µM
[54]
  TGI: > 100 µM
[55]
  TGI: > 100 µM
[56]
  TGI: > 100 µM
[57]
  TGI: > 100 µM
[58]
  TGI: > 100 µM
[59]
  TGI: > 100 µM

## COC(=O)[C@@H]1C[C@H]([Se]c2ccccc2)CN1C(=O)OCc1ccccc1
[1]
  TGI: > 100 µM
[2]
  TGI: > 100 µM
[3]
  TGI: 66.8 µM
[4]
  TGI: 67.1 µM
[5]
  TGI: > 100 µM
[6]
  TGI: 77.2 µM
[7]
  TGI: > 100 µM
[8]
  TGI: 86.1 µM
[9]
  TGI: > 100 µM
[10]
  TGI: > 100 µM
[11]
  TGI: > 100 µM
[12]
  TGI: 30.6 µM
[13]
  TGI: > 100 µM
[14]
  TGI: > 100 µM
[15]
  TGI: 95.3 µM
[16]
  TGI: 68.2 µM
[17]
  TGI: > 100 µM
[18]
  TGI: > 100 µM
[19]
  TGI: 42.2 µM
[20]
  TGI: > 100 µM
[21]
  TGI: 54.5 µM
[22]
  TGI: 71.8 µM
[23]
  TGI: > 100 µM
[24]
  TGI: 69.2 µM
[25]
  TGI: > 100 µM
[26]
  TGI: > 100 µM
[27]
  TGI: > 100 µM
[28]
  TGI: > 100 µM
[29]
  TGI: > 100 µM
[30]
  TGI: 70.4 µM
[31]
  TGI: 26.5 µM
[32]
  TGI: 66 µM
[33]
  TGI: > 100 µM
[34]
  TGI: 84.3 µM
[35]
  TGI: > 100 µM
[36]
  TGI: > 100 µM
[37]
  TGI: > 100 µM
[38]
  TGI: > 100 µM
[39]
  TGI: > 100 µM
[40]
  TGI: > 100 µM
[41]
  TGI: 60.7 µM
[42]
  TGI: > 100 µM
[43]
  TGI: > 100 µM
[44]
  TGI: > 100 µM
[45]
  TGI: 65 µM
[46]
  TGI: > 100 µM
[47]
  TGI: > 100 µM
[48]
  TGI: > 100 µM
[49]
  TGI: > 100 µM
[50]
  TGI: > 100 µM
[51]
  TGI: > 100 µM
[52]
  TGI: 35.8 µM
[53]
  TGI: > 100 µM
[54]
  TGI: 41.5 µM
[55]
  TGI: > 100 µM
[56]
  TGI: 99.2 µM
[57]
  TGI: > 100 µM
[58]
  TGI: > 100 µM
[59]
  TGI: > 100 µM
